Experimental data taken from PMC11659602, “Discovering covalent cyclic peptide inhibitors of peptidyl arginine deiminase 4 (PADI4) using mRNA-display with a genetically encoded electrophilic warhead” (Communications Chemistry, 2024).
“And” between values parts separate entries of the source, which are not always exact repeats. Identical values can stand only once. Like-named read-outs stand apart in the source and are kept apart here. Where a SMILES comes first, the peptide text is derived from it. Bridges are numbered along the chain shown (N, C = ends). [ ]: non-standard residue; d: D form. Orn(fluoroacetimidoyl) = N=C(CF)NCCC[C@H](N)C(=O)O

What was measured:
[1] = molecular target: T1, PADI4 (Homo sapiens, UniProt Q9UM07); experiment: COLDER inhibition assay, BAEE substrate, with or without 1 h preincubation; format: biochemical; conditions: for IC50: COLDER; for remaining activity at 0.003 µM: peptide 0.003 µM; for remaining activity at 0.01 µM: peptide 0.01 µM; for remaining activity at 0.03 µM: peptide 0.03 µM; for remaining activity at 0.1 µM: peptide 0.1 µM; for remaining activity at 0.3 µM: peptide 0.3 µM; for remaining activity at 1 µM: peptide 1 µM; for remaining activity at 3 µM: peptide 3 µM
T1 construct: His6; made in house
Summary of the method: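 50 nM His-PADI4 with peptide (final 0.1× the 0.03-500 µM series), 0.6 mg/mL BSA, 10 mM CaCl2 in 50 mM HEPES, 150 mM NaCl, 2 mM DTT, pH 7.5, with or without 1 h preincubation before 10 mM BAEE. After 30 min at rt, EDTA-quenched; citrulline read colorimetrically at 540 nm; mean ± SEM, ≥2 replicates.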

[2] = molecular target: T1, PADI4; experiment: Incubation time-dependent COLDER assay IC50(t), Krippendorff fit; format: biochemical; conditions: for Ki / kinact: Krippendorff fit of IC50 vs time
Experimental: To determine KI and kinact of covalent peptide inhibitors, COLDER assays were used[52]. Peptide dilutions were prepared using 5-fold dilutions from 500 µM and 300 µM to 0.8 µM and 2.4 µM, respectively, at 1% DMSO in COLDER buffer (50 mM HEPES, 150 mM NaCl and 2 mM DTT, pH 7.5). The 9 peptide dilutions were added to a 96-well plate, alongside a 1% DMSO control. An equal volume of 10 mM BAEE was added to each well and the solution was homogenised by pipette mixing. This was mixed with 50 nM His-PADI4, 0.6 mg/mL BSA and 10 mM CaCl2, in COLDER buffer, to bring the final volume to 300 µL in each well. Alternatively, His-PAD1 (100 nM) /His-PADI2 (100 nM) /His-PADI3 (250 nM) were used. For assays with PADI1 and PADI3, 10 mM N^α-benzoyl-L-arginine methyl […] (BAME) was used as the substrate instead of BAEE[48],[58],[59]. At 15-minute intervals, for 5 timepoints, 50 µL of solution was taken from each well and quenched with 10 µL EDTA (300 mM). 200 µL of COLDER solution containing 20 mM diacetyl monoxime/2,3-butanedione monoxime (Merck), 0.5 mM thiosemicarbazide (Acros Organics), 2.25 M H3PO4, 4.5 M H2SO4 and 1.5 mM NH4Fe(SO4)2.12H2O was added to each well. Samples were incubated for 20 min at 95 °C before measuring absorbance at 540 nm on a CLARIOstar Plus (BMG LABTECH). IC50 values for each time point were determined using non-linear regression with GraphPad Prism. Incubation time–dependent potency IC50(t) against incubation time was fitted to the Krippendorff equation (below) to determine KI and kinact using a Python script[53],[59]. […] IC50t=KI1+S/KM⋅2−2e^−ηIC50⋅kinact⋅t/ηIC50⋅kinact⋅t−1 WhereηIC50=IC50t/KI1+S/KM+IC50t

[3] = molecular target: T1, PADI4; experiment: Surface plasmon resonance (SPR), single cycle kinetics; format: binding; conditions: for Ki: k-1/k+1
Summary of the method: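 Biotinylated His-PADI4 captured on CAP chip (~3000 RU); peptides as 5-point 3-fold series in HEPES, 150 mM NaCl, 10 mM CaCl2, 0.1% DMSO, pH 7.5, triplicate. Warhead peptides fitted two-state (k-2 = 0; Ki = k-1/k+1, kinact = k+2); others 1:1.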

[4] = 1 h preincubation of peptide and PADI4, 10 mM CaCl2, read-out: IC50 Values 1 h preincubation
[5] = no preincubation of peptide and PADI4, 10 mM CaCl2, read-out: IC50 Values 0 h preincubation
[6] = T=0, values starred, read-out: PADI4 activity normalised to 0.1% DMSO
[7] = T=1, read-out: PADI4 activity normalised to 0.1% DMSO
[8] = T=0, read-out: PADI4 activity normalised to 0.1% DMSO
[9] = 15 mins, replicates, read-out: apparent IC50
[10] = 30 mins, replicates, read-out: apparent IC50
[11] = 45 mins, replicates, read-out: apparent IC50
[12] = 60 mins, replicates, read-out: apparent IC50
[13] = 75 mins, replicates, read-out: apparent IC50
[14] = each replicate, read-out: k2 / kinact
[15] = two-state reaction model, k+2, read-out: SPR kinact (converted)

T1 sequence (Q9UM07 whole entry): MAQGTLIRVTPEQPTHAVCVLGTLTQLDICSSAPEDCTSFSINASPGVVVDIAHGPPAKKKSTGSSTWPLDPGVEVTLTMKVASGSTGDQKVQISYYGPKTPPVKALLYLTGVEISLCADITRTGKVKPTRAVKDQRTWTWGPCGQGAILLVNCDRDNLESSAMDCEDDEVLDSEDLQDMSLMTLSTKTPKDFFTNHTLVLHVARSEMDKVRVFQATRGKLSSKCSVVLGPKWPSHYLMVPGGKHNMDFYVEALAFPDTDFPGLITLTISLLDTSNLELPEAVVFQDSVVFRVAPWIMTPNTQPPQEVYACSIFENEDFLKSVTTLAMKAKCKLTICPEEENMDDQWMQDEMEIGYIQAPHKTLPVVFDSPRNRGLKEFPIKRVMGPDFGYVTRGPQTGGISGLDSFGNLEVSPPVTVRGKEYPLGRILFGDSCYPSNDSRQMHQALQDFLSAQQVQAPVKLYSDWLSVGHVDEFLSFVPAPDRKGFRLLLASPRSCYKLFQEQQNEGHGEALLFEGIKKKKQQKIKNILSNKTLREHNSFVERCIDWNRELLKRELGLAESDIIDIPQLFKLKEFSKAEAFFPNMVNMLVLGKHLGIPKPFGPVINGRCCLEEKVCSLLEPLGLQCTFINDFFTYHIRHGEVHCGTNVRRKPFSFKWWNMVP

| Compound | IC50 [1, 4] [nM] | IC50 [1, 5] [nM] | remaining activity at 0.003 µM [1, 6] [%] | remaining activity at 0.003 µM [1, 7] [%] | remaining activity at 0.01 µM [1, 6] [%] | remaining activity at 0.01 µM [1, 7] [%] | remaining activity at 0.03 µM [1, 8] [%] | remaining activity at 0.03 µM [1, 7] [%] | remaining activity at 0.1 µM [1, 8] [%] | remaining activity at 0.3 µM [1, 8] [%] | remaining activity at 1 µM [1, 8] [%] | remaining activity at 3 µM [1, 8] [%] | kinact/KI [2] [M⁻¹ s⁻¹] | IC50 [2, 9] | IC50 [2, 10] | IC50 [2, 11] | IC50 [2, 12] | IC50 [2, 13] | Ki [2] [nM] | kinact [2] [s⁻¹] | also measured |
| --- | --- | --- | --- | --- | --- | --- | --- | --- | --- | --- | --- | --- | --- | --- | --- | --- | --- | --- | --- | --- | --- |
| N=C(N)NCCC[C@@H]1NC(=O)[C@H](CCCNC(=N)CF)NC(=O)[C@H](CC(=O)O)NC(=O)[C@H](Cc2ccc(O)cc2)NC(=O)[C@H](CCCCN)NC(=O)[C@H](CO)NC(=O)[C@@H](Cc2ccc(O)cc2)NC(=O)CSC[C@@H](C(=O)NCC(N)=O)NC(=O)[C@H](CC(=O)O)NC(=O)[C@H](CCCNC(=N)N)NC(=O)[C@@H]2CCCN2C(=O)[C@H](CO)NC1=O [cP4_4, ySKYD(2)RSPRDCG] ({CH2CO}-[dY]SKYD[Orn(fluoroacetimidoyl)]RSPRDCG-NH2; thioether N-12) | 70 ± 4 | 4400 ± 70 | 97.2 | 84.1 | 92.4 | 86.9 | 93.5 | 73.7 | 90.5 | 87.5 | 76.3 | 53.9 | 1230 | 8810 nM and 8730 nM and 8280 nM | 4670 nM and 4780 nM and 4310 nM | 3420 nM and 4190 nM and 3180 nM | 3080 nM and 3100 nM and 2670 nM | 2720 nM and 2530 nM and 2470 nM | 1900 ± 100 | 0.00217 | remaining activity at 0.1 µM [1, 7]: 29.1%; remaining activity at 10 µM ([1]; peptide 10 µM, T=0, read-out: PADI4 activity normalised to 0.1% DMSO): 20.8%; remaining activity at 30 µM ([1]; peptide 30 µM, T=0, read-out: PADI4 activity normalised to 0.1% DMSO): 8.03%; PADI4 activity, normalised (Figure S11c) ([2]; cP4_4 0.08 µM): 98.2718 and 96.1223 and 99.8314; PADI4 activity, normalised (Figure S11c) ([2]; cP4_4 0.24 µM): 93.4756 and 94.2113; PADI4 activity, normalised (Figure S11c) ([2]; cP4_4 0.4 µM): 100.554 and 87.7482; PADI4 activity, normalised (Figure S11c) ([2]; cP4_4 1.2 µM): 75.0589 and 75.4411 and 70.326; PADI4 activity, normalised (Figure S11c) ([2]; cP4_4 2 µM): 67.2548 and 61.3338; PADI4 activity, normalised (Figure S11c) ([2]; cP4_4 6 µM): 29.9549 and 26.3769; PADI4 activity, normalised (Figure S11c) ([2]; cP4_4 10 µM): 22.5225 and 20.5991 and 19.0146; PADI4 activity, normalised (Figure S11c) ([2]; cP4_4 30 µM): 7.3132 and 8.5351 and 5.9198; PADI4 activity, normalised (Figure S11c) ([2]; cP4_4 50 µM): 3.0999 and 5.4575 and 3.9528; kinact/KI [3]: 15200 M⁻¹ s⁻¹; k2 / kinact ([3]; each replicate): 0.0019 s⁻¹; kinact [3, 14]: 0.0017 s⁻¹; kinact [3, 15]: 0.00183 s⁻¹; Ki ([3]; two-state reaction model): 120 ± 10 nM |
| CC(C)C[C@@H]1NC(=O)[C@H](CCCCN)NC(=O)[C@H](CO)NC(=O)[C@H](CO)NC(=O)[C@H](Cc2ccc(O)cc2)NC(=O)[C@H](Cc2c[nH]cn2)NC(=O)[C@H](CCCNC(=N)CF)NC(=O)[C@H](CC(=O)O)NC(=O)[C@H](CC(C)C)NC(=O)[C@@H](Cc2ccc(O)cc2)NC(=O)CSC[C@@H](C(=O)NCC(N)=O)NC(=O)[C@H](Cc2ccc(O)cc2)NC1=O [cP4_15, yLD(2)HYSSKLYCG] ({CH2CO}-[dY]LD[Orn(fluoroacetimidoyl)]HYSSKLYCG-NH2; thioether N-12) | 52 ± 2 | 1600 ± 30 | 95.7 | 87.4 | 92.2 | 88.3 | 95.8 | 81.5 | 88.7 | 82.7 | 61.2 | 32.3 | 3550 | 4150 nM and 3690 nM and 2680 nM | 1490 nM and 1390 nM and 1520 nM | 996 nM and 1150 nM and 1210 nM | 809 nM and 775 nM and 965 nM | 752 nM and 784 nM and 780 nM | 780 ± 60 | 0.00283 | IC50 ([2]; 60-minute time point, no preincubation, read-out: PADI4 IC50): 850 nM; remaining activity at 0.048 µM ([2]; 1 h, 0.048 µM, quenched after 60 mins, read-out: PADI4 activity normalised to 0.1% DMSO): 98.8%; remaining activity at 0.08 µM ([2]; 1 h, 0.08 µM, quenched after 60 mins, read-out: PADI4 activity normalised to 0.1% DMSO): 93.4%; remaining activity at 0.24 µM ([2]; 1 h, 0.24 µM, quenched after 60 mins, read-out: PADI4 activity normalised to 0.1% DMSO): 87.8%; remaining activity at 0.4 µM ([2]; 1 h, 0.4 µM, quenched after 60 mins, read-out: PADI4 activity normalised to 0.1% DMSO): 76.7%; remaining activity at 1.2 µM ([2]; 1 h, 1.2 µM, quenched after 60 mins, read-out: PADI4 activity normalised to 0.1% DMSO): 35.6%; remaining activity at 2 µM ([2]; 1 h, 2 µM, quenched after 60 mins, read-out: PADI4 activity normalised to 0.1% DMSO): 23.1%; remaining activity at 6 µM ([2]; 1 h, 6 µM, quenched after 60 mins, read-out: PADI4 activity normalised to 0.1% DMSO): 12.5%; remaining activity at 10 µM ([2]; 1 h, 10 µM, quenched after 60 mins, read-out: PADI4 activity normalised to 0.1% DMSO): 7.1%; kinact/KI [3]: 26600 M⁻¹ s⁻¹; k2 / kinact ([3]; each replicate): 0.0051 s⁻¹; kinact [3, 14]: 0.0028 s⁻¹; kinact [3, 15]: 0.00417 s⁻¹; Ki ([3]; two-state reaction model): 160 ± 30 nM |
